Target: T1, human RORγ-LBD (Homo sapiens, UniProt P51449)
T1 construct: made in house; host or cells: E. coli (BL-21)
T1 sequence (P51449 262-518): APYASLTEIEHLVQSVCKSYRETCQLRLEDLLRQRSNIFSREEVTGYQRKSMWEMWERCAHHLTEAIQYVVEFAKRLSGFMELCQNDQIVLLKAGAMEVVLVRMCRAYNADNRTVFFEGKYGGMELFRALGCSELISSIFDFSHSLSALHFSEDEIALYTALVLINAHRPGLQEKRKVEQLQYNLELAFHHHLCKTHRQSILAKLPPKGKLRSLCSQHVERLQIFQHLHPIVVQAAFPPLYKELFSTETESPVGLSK
Assay: ROR gamma coactivator peptide recruitment Alphascreen assay (RORγ-LBD binding to GRIP1 coactivator peptide)
Assay type: biochemical
Details: 5 nM human RORγ-LBD, 30 nM 7-β-hydroxycholesterol, 50 nM biotinylated GRIP1 coactivator peptide, overnight incubation at room temperature; read-out: result (pIC50, RORγ coactivator peptide recruitment Alphascreen assay) (converted)
How it was run: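 Alphascreen proximity read-out after overnight room-temperature incubation, yielding pIC50 from 1-in-2 compound series (2.5% DMSO final). Mixture: 50 nM biotin-GRIP1 peptide, 30 nM 7-β-hydroxycholesterol agonist, 5 nM recombinant 6×His:Flag human RORγ-LBD (aa 262-518), 50 mM HEPES pH 7.4.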

IC50 [nM] | Structure (SMILES)
0.832 | Cc1cc(Cl)c(C(=O)CN(C(=O)c2cnn([C@H]3CC[C@](C)(C(=O)O)CC3)c2C(F)(F)F)[C@H]2CCC23CCC3)c(Cl)c1 [Example 721, trans-4-(4-((2-(2,6-dichloro-4-methylphenyl)-2-oxoethyl)((1S)-spiro[3.3]hept-1-yl)carbamoyl)-5-(trifluoromethyl)-1H-pyrazol-1-yl)-1-methylcyclohexanecarboxylic acid]
32.4 | CC1(C)C[C@H]1N(CC(=O)c1c(Cl)cncc1Cl)C(=O)c1cnn([C@H]2CC[C@](C)(C(=O)O)CC2)c1C(F)(F)F [Example 648, trans-4-(4-((2-(3,5-dichloro-4-pyridinyl)-2-oxoethyl)((1R)-2,2-dimethylcyclopropyl)carbamoyl)-5-(trifluoromethyl)-1H-pyrazol-1-yl)-1-methylcyclohexanecarboxylic acid]
18.6 | C[C@@H]1C[C@@H](n2ncc(C(=O)N(CC(=O)c3c(Cl)cncc3Cl)C[C@H]3CCC(C)(C)O3)c2C(F)(F)F)CC[C@@H]1C(=O)O [Example 826, (1S,2R,4S)-4-(4-((2-(3,5-dichloro-4-pyridinyl)-2-oxoethyl)(((2R)-5,5-dimethyltetrahydro-2-furanyl)methyl)carbamoyl)-5-(trifluoromethyl)-1H-pyrazol-1-yl)-2-methylcyclohexanecarboxylic acid]
18.6 | O=C(CN(CC1(F)CCCC1)C(=O)c1cnn([C@H]2C[C@@H]3[C@H](C2)[C@@H]3C(=O)O)c1C(F)(F)F)c1c(Cl)cccc1Cl [Example 769, (1R,3r,5S,6s)-3-(4-((2-(2,6-dichlorophenyl)-2-oxoethyl)((1-fluorocyclopentyl)methyl)carbamoyl)-5-(trifluoromethyl)-1H-pyrazol-1-yl)bicyclo[3.1.0]hexane-6-carboxylic acid]
1.32 | C[C@@H]1C[C@@H](n2ncc(C(=O)N(CC(=O)c3c(Cl)cccc3Cl)[C@H]3CCC34CCC4)c2C(F)(F)F)CC[C@@H]1C(=O)O [Example 848, (1S,2R,4S)-4-(4-((2-(2,6-dichlorophenyl)-2-oxoethyl)((1S)-spiro[3.3]hept-1-yl)carbamoyl)-5-(trifluoromethyl)-1H-pyrazol-1-yl)-2-methylcyclohexanecarboxylic acid]
100 | C[C@@H]1C[C@@H](n2ncc(C(=O)N(CC(=O)c3c(Cl)cncc3Cl)C[C@H]3CCCO3)c2C(F)(F)F)CC[C@@H]1C(=O)O [Example 820, (1S,2R,4S)-4-(4-((2-(3,5-dichloro-4-pyridinyl)-2-oxoethyl)((2R)-tetrahydro-2-furanylmethyl)carbamoyl)-5-(trifluoromethyl)-1H-pyrazol-1-yl)-2-methylcyclohexanecarboxylic acid]
33.9 | CC1(C)CC[C@H]1N(CC(=O)c1c(Cl)cncc1Cl)C(=O)c1cnn([C@H]2CC[C@](C)(C(=O)O)CC2)c1C(F)(F)F [Example 616, trans-4-(4-((2-(3,5-dichloro-4-pyridinyl)-2-oxoethyl)((1R)-2,2-dimethylcyclobutyl)carbamoyl)-5-(trifluoromethyl)-1H-pyrazol-1-yl)-1-methylcyclohexanecarboxylic acid]
21.9 | C[C@@H]1C[C@@H](n2ncc(C(=O)N(CC(=O)c3c(Cl)cncc3Cl)C[C@@H]3CCC(C)(C)O3)c2C(F)(F)F)CC[C@@H]1C(=O)O [Example 774, (1S,2R,4S)-4-(4-((2-(3,5-dichloro-4-pyridinyl)-2-oxoethyl)(((2S)-5,5-dimethyltetrahydro-2-furanyl)methyl)carbamoyl)-5-(trifluoromethyl)-1H-pyrazol-1-yl)-2-methylcyclohexanecarboxylic acid]

More lines, now with the values behind:

Structure (SMILES) | IC50 [nM]
Cc1cc(Cl)c(C(=O)CN(CCOC(C)(C)C)C(=O)c2cnn([C@H]3CC[C@](C)(C(=O)O)CC3)c2C(F)(F)F)c(Cl)n1 [Example 779, trans-4-(4-((2-(2,4-dichloro-6-methyl-3-pyridinyl)-2-oxoethyl)(2-((2-methyl-2-propanyl)oxy)ethyl)carbamoyl)-5-(trifluoromethyl)-1H-pyrazol-1-yl)-1-methylcyclohexanecarboxylic acid] | 18.2
C[C@]1(C(=O)O)CC[C@H](n2ncc(C(=O)N(CC(=O)c3c(Cl)cncc3Cl)CC3(C(F)(F)F)CCC3)c2C(F)(F)F)CC1 [Example 799, trans-4-(4-((2-(3,5-dichloro-4-pyridinyl)-2-oxoethyl)((1-(trifluoromethyl)cyclobutyl)methyl)carbamoyl)-5-(trifluoromethyl)-1H-pyrazol-1-yl)-1-methylcyclohexanecarboxylic acid] | 3.89
Cc1cc(Cl)c(C(=O)CN(CC2(C)CCC2)C(=O)c2cnn([C@H]3CC[C@H](CC(=O)O)CC3)c2C(F)(F)F)c(Cl)c1 [Example 890, (trans-4-(4-((2-(2,6-dichloro-4-methylphenyl)-2-oxoethyl)((1-methylcyclobutyl)methyl)carbamoyl)-5-(trifluoromethyl)-1H-pyrazol-1-yl)cyclohexyl)acetic acid] | 0.708
C[C@]1(C(=O)O)CC[C@H](n2ncc(C(=O)N3C[C@H](C4CCCCC4)C[C@H]3C(=O)c3c(Cl)cncc3Cl)c2C(F)(F)F)CC1 (single isomer, unassigned) [Example 823] | 9120
CC1(C)CC(CN(CC(=O)c2c(F)cccc2F)C(=O)c2cnn([C@H]3CC[C@@H](C(=O)O)CC3)c2C(F)(F)F)C1 [Example 597, cis-4-(4-((2-(2,6-difluorophenyl)-2-oxoethyl)((3,3-dimethylcyclobutyl)methyl)carbamoyl)-5-(trifluoromethyl)-1H-pyrazol-1-yl)cyclohexanecarboxylic acid] | 2400
CO[C@H](CN(CC(C)(C)C)C(=O)c1cnn([C@H]2CC[C@H](C(=O)O)CC2)c1C(F)(F)F)c1c(Cl)cc(C)cc1Cl [Example 530, trans-4-(4-(((2S)-2-(2,6-dichloro-4-methylphenyl)-2-methoxyethyl)(2,2-dimethylpropyl)carbamoyl)-5-(trifluoromethyl)-1H-pyrazol-1-yl)cyclohexanecarboxylic acid] | 51.3
Cc1cc(Cl)c(C(=O)CN(C(=O)c2cnn([C@H]3CC[C@H](CC(=O)O)CC3)c2C(F)(F)F)[C@H]2C[C@@H]3[C@H](C2)C3(C)C)c(Cl)c1 [Example 750, (trans-4-(4-((2-(2,6-dichloro-4-methylphenyl)-2-oxoethyl)((1R,3r,5S)-6,6-dimethylbicyclo[3.1.0]hex-3-yl)carbamoyl)-5-(trifluoromethyl)-1H-pyrazol-1-yl)cyclohexyl)acetic acid] | 1.58
Cc1cc(Cl)c(C(=O)CN(CC2CCC(C)(C)CC2)C(=O)c2cnn([C@H]3CC[C@H](C(=O)O)CC3)c2C(F)(F)F)c(Cl)c1 [Example 535, trans-4-(4-((2-(2,6-dichloro-4-methylphenyl)-2-oxoethyl)((4,4-dimethylcyclohexyl)methyl)carbamoyl)-5-(trifluoromethyl)-1H-pyrazol-1-yl)cyclohexanecarboxylic acid] | 1.32
Cc1cc(Cl)c(C(=O)CN(CC2CC(C)(C)C2)C(=O)c2cnn([C@H]3CC[C@H](C(=O)O)CC3)c2C(F)(F)F)c(Cl)c1 [Example 520, trans-4-(4-((2-(2,6-dichloro-4-methylphenyl)-2-oxoethyl)((3,3-dimethylcyclobutyl)methyl)carbamoyl)-5-(trifluoromethyl)-1H-pyrazol-1-yl)cyclohexanecarboxylic acid] | 2.51
